Values quoted from earlier work in patent US20230405068A1, “RADIATION-INDUCED FIBROSIS TREATMENT” (Handelsselskabet af 20.10.2020 ApS, priority 2020, published 2023).
Like-named read-outs stand apart in the source and are kept apart here.

What was measured:
[1] = system: radiation-induced dermatitis; conditions: rats
[2] = system: radiation-induced dermatitis; conditions: mice; applied topically
[3] = system: radiation-induced injury
[4] = system: radiation-induced skin fibrosis; conditions: intramuscular injection; humans
[5] = system: radiation-induced skin fibrosis; conditions: intramuscular injection; pigs

| Compound | mitochondrial lipid peroxidation [3] | protection from radiation-induced injury [3] | also measured |
| --- | --- | --- | --- |
| CC(=O)N[C@@H](CS)C(=O)O [N-acetylcysteine] |  |  | protection from radiation-induced dermatitis [1]: significantly protects |
| CC1(C)CC[C@]2(NC(=O)C(C)(F)F)CC[C@]3(C)[C@H](C(=O)C=C4[C@@]5(C)C=C(C#N)C(=O)C(C)(C)[C@@H]5CC[C@]43C)[C@@H]2C1 [RTA 408, omaveloxolone] |  |  | protection from radiation-induced dermatitis [2]: allegedly protecting |
| NCCCNCCSP(=O)(O)O [amifostine] | limit mitochondrial lipid peroxidation | protect from radiation-induced injury |  |
| N[C@@H](CCC(=O)N[C@@H](CS)C(=O)NCC(=O)O)C(=O)O [glutathione] | limit mitochondrial lipid peroxidation | protect from radiation-induced injury |  |
| Sod1 (Cu—Zn) protein: Sod1 (Cu—Zn) protein given by intramuscular injection |  |  | protection from radiation-induced skin fibrosis [4]: protected; protection from radiation-induced skin fibrosis [5]: protected |
